# According to US4332805A, “Decahydroquinolinol derivatives and methods of treating cardiac arrythmias or inducing local anaesthesia with them” (priority 1979, dated 1982):
# Where a name gives a salt, the structure may show the parent alone. Read-outs that look alike come from different tables or passages of the source.
# Tests used:
# [1] = local anaesthesia, CHANCE and LOBSTEIN technique (eyelid closure after touching cornea); format: in vivo, guinea-pig; settings: for local anaesthesia, % of animals / local anaesthesia, % of animals protected: guinea-pig eye; for local anaesthesia, % of animals: 0.1% solution, 5 minutes after administration; for local anaesthesia, % of animals protected: 0.5% solution
# Experimental: In this way, the percentage of locally anaesthetized animals were determined with respect to both the dose of compound given and the length of time elapsing after administration.
# [2] = protection against toxic effects of epinephrine (antiadrenergic properties); format: in vivo; settings: mice, 50 mg/kg intragastric, 30 minutes before 3 mg/kg i.v. epinephrine
# Experimental: Tests carried out with Compound A have shown that a dose of 50 mg/kg administered by intragastric route to mice 30 minutes before the intravenous injection of 3 mg/kg of epinephrine gave no protection against the toxic effects of this catecholamine.
# [3] = convulsant dose; format: in vivo; settings: mice per os; dog i.v.
# [4] = motor activity (spontaneous motility) / sedation; format: in vivo, mouse
# [5] = acute toxicity; settings: rat, in vivo
# Source text: Acute toxicity tests were undertaken with Compound A on mice and rats.
# [6] = LAWSON test: protection against chloroform-induced ventricular fibrillation; format: in vivo; settings: mice, 75 mg/kg intragastric
# [7] = ventricular fibrillation provoked by chloroform or by calcium chloride; settings: in vivo
# [8] = arrhythmia-inducing and lethal dose in continuous venous perfusion; format: in vivo; settings: anaesthetized dog
# [9] = hypotensive activity / myocardial contractility; settings: in vivo
# [10] = acute toxicity; settings: mouse, in vivo, mice
# [11] = LAWSON test: protection against chloroform-induced ventricular fibrillation; format: in vivo, mice; settings: Mus musculus, po
# Experimental: The arrhythmia was induced, in this test, by inhalation of chloroform until breathing stopped.
# For each dose of the substance to be studied, batches of 10 female mice, each of about 20 g, were used. These mice had been fasting for 18 hours before the test. A batch of 10 animals was used as control group.
# A dose of the compound to be studied was first administered by intragastric route except to the controls which only received the solvent used with the compound in question. Thirty minutes later, the animals were placed under a dome-shaped receptacle containing a high concentration of chloroform obtained by means of a strongly impregnated pad.
# The animals were removed when totally asphyxiated (about 2 minutes later), the thorax was rapidly opened and the ventricular rhythm observed. The dose of the compound under study which protected 50% of the animals against ventricular fibrillation was then determined.
# This protective dose is expressed as AD50 in mg/kg in the following Table. […]
# Another comparative test was performed under the same conditions with
# several compounds included within the scope of U.S. Pat. No. 3,882,129 at
# the single dose of 100 mg/kg by intragastric route.
# The following results were obtained which are expressed in percentage of protection obtained against the arrhythmic effect at the studied dose: […]
# [12] = 30 minutes after administration
# [13] = 0.5 h, female mice, intragastric, 30 minutes before chloroform, salts (hydrochloride), read-out: AD50 (dose protecting 50% of the animals against ventricular fibrillation)
smiles,measurement,setting,value
"NC(=O)O[C@@H]1CCN(CCCOc2ccc(F)cc2)[C@H]2CCCC[C@H]12 (relative stereo) [Compound A, 4-Carbamoyloxy-1-[3-(4-fluoro-phenoxy)-propyl]-trans-decahydroquinoline (axial form)]",local anaesthetic activity compared with lidocaine,[1]; guinea-pig,more active than lidocaine as a local anaesthetizing agent and exerts its effects over a longer period of time
same,"local anaesthesia, % of animals",[1],58%
same,"local anaesthesia, % of animals protected",[1]; [12],35%
same,protection against the toxic effects of epinephrine,[2],no protection
same,safety margin between effective antiarrhythmic dose and convulsant dose,[3],good safety margin
same,sedative / antiadrenergic at antiarrhythmic doses,"[4]; mice, 50 mg/kg intragastric",neither sedative nor antiadrenergic at antiarrhythmic doses
same,depression of spontaneous motility,"[4]; mice, 50 mg/kg intragastric, 30 minutes later",no depression of spontaneous motility
same,motor activity,[4]; mouse,does not modify motor activity
same,LD50,[5]; iv,47 mg/kg
same,LD50,[5]; po,> 2000 mg/kg
same,% of protection,[6]; [12],80%
same,% of protection,[6]; 60 minutes after administration,65%
same,% of protection,[6]; 120 minutes after administration,60%
same,% of protection,[6]; 180 minutes after administration,45%
same,% of protection,[6]; 240 minutes after administration,30%
same,protection against ventricular fibrillation provoked by chloroform or by calcium chloride,[7],provides protection against ventricular fibrillation provoked by chloroform or by calcium chloride
same,lethal dose,[8],84.1 ± 7.1 mg/kg
same,TD50,"[8]; in vivo, iv",80.6 ± 6 mg/kg
same,hypotensive activity and depression of myocardial contractility,[9],neither a hypotensive agent since its mechanism of action does not result from antiadrenergic properties nor is it a depressant of myocardial contractility
same,LD50,"[10]; po, intragastric",750 mg/kg
same,LD50,[10]; intravenous,42.5 mg/kg
same,ED50,[11]; [13],45 mg/kg
same,ED50,"[11]; mice, per os, read-out: Antiarrhythmic dose (LAWSON AD50 test)",45 mg/kg
"O=C(Nc1ccccc1)O[C@@H]1CCN(CCCOc2ccc(F)cc2)[C@H]2CCCC[C@H]12 (relative stereo) [phenyl, 3, O, 4-fluoro-phenyl, axial, 1-[3-(4-Fluoro-phenoxy)-propyl]-4-(N-phenylcarbamoyloxy)-trans-decahydroquinoline hydrochloride (axial form)]",ED50,[11]; [13],> 100 mg/kg
"CCN(CC)CC(=O)Nc1c(C)cccc1C [lidocaine, reference compound]","local anaesthesia, % of animals",[1],26%
same,"local anaesthesia, % of animals protected",[1]; 15 minutes after administration,35%
same,ED50,"[11]; 0.5 h, read-out: AD50 (dose protecting 50% of the animals against ventricular fibrillation)",35 mg/kg
